Calls of active or inactive are those of the source.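 How the source made its calls: active means compound whose fitted growth curve, scaled so untreated is 0 and control 100, reaches 40 within the tested doses; inconclusive means flat curve between 30 and 70 percent, or unreliable fit; inactive means the rest, including drops in growth.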
Test system: S. cerevisiae GAL-BEM3 growth rescue, OD600, 48 h
Experiment: rescue of BEM3-induced yeast toxicity, dose response, S. cerevisiae, dry powder, plate reader (AID 602280)

SMILES	AC40
CC(C)c1ccc(C2NC(=O)c3ccccc3O2)cc1 (centres undefined)	2.3 µM
O=c1c2ccccc2[nH]c(=S)n1CCC1=CCCCC1	22 µM
Fc1cc(NCc2ccccc2)nc(NCc2ccccc2)n1	8.75 µM
Cc1ccccc1CSc1nsc(N)n1	> 26 µM (inactive)

Source: PubChem BioAssay AID602280 (Broad Institute, 2012)
